Test results from patent US7524487B2, “Compositions and methods for modulating interleukin-10” (University of Maryland, priority 2005, dated 2009).

Columns and labels:
Sp1 = experiment: EMSA of Sp1 binding to the IL-10 promoter motif, nuclear extracts of BMMφ; assay type: cell-based, mice; details: BMMφ stimulated with LPS 10 ng/ml or LPS+E-IgG for 30 min
Procedure: A. Cells were stimulated with LPS (10 ng/ml) or LPS+E-IgG for 30 min and nuclear extracts were analyzed by EMSA using Sp1 (A) or STAT3 (B) specific probes. C. RAW264.7 cells were stimulated with medium (open bar), E-IgG (dotted bar), LPS (solid bar) or LPS+E-IgG (striped bar) and cytokines measured by ELISA after 6 h. Data represents the mean of triplicate samples±SD. D. RAW264.7 cells were transfected with pRL-IL10-luciferase reporter plasmid (5 ug/ml) and 24 h later stimulated with medium (con), 10 ng/ml LPS (solid bar) or E-IgG+LPS (striped bar) for 4 h. Cells were then lysed and luciferase activity measured. This figure is representative of 3 experiments.
Electrophoretic mobility shift assay (EMSA). Nuclear extracts were prepared from 2×10^7 Mφ using the Nuclear Extraction kit (Panomics, Redwood City, Calif.) following the manufactures protocol. EMSAs were carried out using the EMSA “Gel-Shift” kit (Panomics, Redwood City, Calif.). Briefly, 5 μg of nuclear extract were incubated with biotin-Sp1 or STAT3 probe±unlabelled probe for 30 min at 20° C., and then run on a 6% polyacrylamide gel. Oligo/protein complexes were transferred to Biodyne B membrane (Pall, Ann Arbor, Mich.). Following transfer, membranes were incubated with streptavidin-HRP and protein visualized by chemiluminescence.

IL-10 promoter = experiment: ChIP of histone H3 phosphorylation at the IL-10 promoter in stimulated BMMφ; assay type: cell-based, mice
Procedure: BMMφ were stimulated with medium (open bars), LPS (solid bars) or E-IgG+LPS (striped bars) for 15 minutes (A), or the indicated times (B) and ChIP assays were carried out as described in Materials and Methods. Immunoprecipitations utilized antibodies specific to phospho-H3 (left panel) or acetyl-H3 (right panel). A. conventional RT-PCR and B. real time PCR were carried out using IL-10 promoter or IL-12p40 promoter specific primers. For real time PCR, samples were normalized to input DNA controls.
Cells were pretreated with PD98059 (10 μM), SB203580 (1 μM) or medium for 30 min then stimulated with medium (open bar), IgG-OVA (dotted bar), LPS (solid bar), or both (striped bars) for 40 min. ChIP analysis was carried out using a phospho-H3 specific Ab. A. Conventional RT-PCR was carried out using IL-10 promoter or IL-12p40 promoter specific primers. B. Real time PCR analysis of samples obtained in A. Samples were normalized to input DNA controls.
FIG. 22 is a graph showing Inhibition of histone modifications by blocking ERK. BMMφ were pre-treated with PD98059 (15 μM) (solid bars) or drug vehicle (open bars) for 1 hour and then stimulated with IC plus LPS (10 ng/mL). Cross-linked chromatin fragments were immunoprecipitated with antibody to phosphorylated histone H3 at Ser 10 or antibody to Sp1. The DNA was purified and analyzed for the presence of IL-10 promoter sequences corresponding to nucleosome −2 by QRT-PCR. The data were plotted graphically as the percentage change relative to drug vehicle (IC/LPS) at 30 min post-stimulation for histone H3 phosphorylation, and at 45 min post-stimulation for Sp1 recruitment. One representative from two independent experiments is presented.
Chromatin immunoprecipitation (ChIP). ChIPs were carried out using the ChIP Assay kit following the manufacturer's protocol (Upstate USA, Inc., Lake Placid, N.Y.). Briefly, 1×10^6 BMMφ were plated overnight in 6-well plates. Cells were stimulated as described in Figure Legends then fixed for 10 min at 37° C. in paraformaldehyde (1% final concentration). […]

Sp1 binding to the IL-10 promoter (EMSA) (Sp1): no effect
Compound: COc1cccc(-c2cc(=O)c3ccccc3o2)c1N [PD98059]
histone H3 Ser 10 phosphorylation at IL-10 promoter nucleosome −2 (ChIP, QRT-PCR) (IL-10 promoter; BMMφ pre-treated with PD98059 15 μM for 1 hour, IC plus LPS 10 ng/mL, 30 min post-stimulation, relative to drug vehicle): substantial loss | histone H3 phosphorylation at the IL-10 promoter induced by immune complex (ChIP) (IL-10 promoter; BMMφ pretreated 30 min with PD98059 10 μM or SB203580 1 μM, then IgG-OVA + LPS for 40 min): completely abrogated
